Positions of bridges follow the written chain, without caps; N, C: chain ends. No end group written: not given here.
Tested on: Kv1.1
Assay: TEVC inhibition, Kv1.1
Assay type: cell-based, rat
Set-up: Inhibition data, Kv1.1: unit not given here
Settings: 1 µM
Text: For the expression of Kv channels rat Kv1.1 (GenBank accession number: NM_173095 [88, 89]), rKv1.2 (NM_012970 [90, 91]), human Kv1.3 (NM_002232 [92, 93]), rKv1.4 (NM_012971 [94, 95]), rKv1.6 (NM_023954 [96, 97]), hKv2.1 (NM_004975 [98, 99]), hKv3.1 (NM_004976 [100, 101]), rKv4.2 (NM_031739 [102, 103]), hKv10.1 (NM_172362 [104, 105]), hERG1 [Kv11.1, (NM_000238 [106, 107])], and Shaker IR [from Drosophila melanogaster, (NM_167595 [108, 109])], Nav channels [rNav1.2 (NM_012647 [42, 110]), rNav1.4 (NM_013178 [111, 112]), hNav1.5 (NM_198056 [113, 114]), mNav1.6 (NM_001077499 [115, 116]), BgNav [from Blattella germanica, (DQ466887 [117, 118])] and the auxiliary subunits rβ1 (NM_001271045 [119, 120]), hβ1 (NM_001037 [121, 122]), and TipE [from D. melanogaster, (NM_079196 [109, 123])], and Cav channels hCav3.1 [124, 125], hCav3.2 [126, 127], and hCav3.3 [128, 129] in Xenopus oocytes, the linearized plasmids were transcribed using the T7 or SP6 mMESSAGEmMACHINE transcription kit (Ambion, Austin, TX, USA). Mature female animals were purchased from Nasco (Fort Atkinson, USA) and were housed in the Aquatic Facility (KU Leuven) in compliance with the regulations of the European Union (EU) concerning the welfare of laboratory animals as declared in Directive 2010/63/EU. The use of X. laevis oocytes was approved by the Animal Ethics Committee of the KU Leuven with the license number P186/2019. Stage V–VI oocytes were collected from anesthetized female X. laevis frog as previously described, with the frogs anesthetized by placement in 0.1% tricaine solution (amino benzoic acid ethyl ester; Merck, USA). Oocyte microinjection was performed using a microinjector (Drummond Scientifc®, USA), with a programmed cRNA injection volume of 4—50 nL, depending on the channel subtype. The oocytes were incubated in ND96 solution (96 mM NaCl, 2 mM KCl, 1.8 mM CaCl2, 2 mM MgCl2, and 5 mM HEPES, pH 7.4), supplemented with 50 mg/l gentamicin sulfate.
Electrophysiological measurements were performed at room temperature (18–22 °C) using the two-electrode voltage clamp (TEVC) technique. Data were obtained using a GeneClamp 500 amplifier (Axon Instruments, USA), and Clampex9 software (Axon Instruments), responsible for data acquisition and storage. Glass micropipettes were produced using glass capillaries (borosilicate WPI 1B120-6) and drawn in a WPI (World Precision Instruments, USA) manual stretcher. The bath and perfusion solutions were either the previously described ND96 (Nav and Kv channels) or calcium-free ND96 supplemented with 10 mM BaCl2 (Cav channels).
Whole-cell currents of oocytes were recorded 1 to 3 days after injection. Current and voltage electrodes were filled with 3 M KCl and their resistance was adjusted from 0.7 to 2.0 MΩ. Currents were sampled at 20 kHz (Nav channels) and 10 kHz (Kv and Cav channels) and filtered using a four-pole Bessel low-pass Bessel filter, at 1 kHz for sodium, and […] for potassium and calcium, except for the hERG ion channel, in which the currents were filtered at 1 kHz. Leak subtraction was performed using a -P/4 protocol. Kv1.x currents were evoked by 500 ms depolarizations to 0 mV followed by a 500-ms pulse to − 50 mV, from a holding potential of − 90 mV. Kv2.1, Kv3.1, and Kv4.2 currents were elicited by 500 ms pulses to + 20 mV from a holding potential of − 90 mV. Current traces of Kv10.1 were elicited by 2 s depolarization to 0 mV, from a holding potential of − 90 mV. Current traces of hERG1 channel were elicited by applying a + 40 mV prepulse for 2 s followed by a step of − 120 mV for 2 s. Sodium current traces were evoked by a 100 ms depolarization to 0 mV, from a holding potential of − 90 mV. The current–voltage (IV) relationships were determined by 100-ms step depolarizations between − 90 and + 40 mV, using 5 mV increments. […]

| Sequence | inhibition of Kv1.1 | Inhibition data, Kv1.1 (replicate 1) | Inhibition data, Kv1.1 (replicate 2) | Inhibition data, Kv1.1 (replicate 3) | Inhibition data, Kv1.1 (replicate 4) |
| --- | --- | --- | --- | --- | --- |
| KRSCIRRFGRCDHRPNDCCYNSSCRCNLWGSNCRCQRMGLFQKWGK (disulfide 4-19, 11-24, 18-35, 26-33) [xib13] | inhibit especially Kv1.1 channels | 83.4 | 86.7 | 85.0 | 83.1 |
| RLFCIRHHKYCGHRPKRCCSGLFCRCNTFGTNCRCQSKGALGKLI (disulfide 4-19, 11-24, 18-35, 26-33) [xib1] | inhibit especially Kv1.1 channels | 76.3 | 66.2 | 76.2 | 75.3 |

From publication PMC11288129, “Diversely evolved xibalbin variants from remipede venom inhibit potassium channels and activate PKA-II and Erk1/2 signaling” (BMC Biology, 2024)
